The series deals with rat hippocampal neurons and astrocytes. The series is described as follows: cultured rat hippocampal neurons and astrocytes: viability, acetylated α-tubulin, synaptotagmin. The class given is cell-based. As for the experimental part: All cells were cultured at 37° C. in a humidified incubator supplemented with 5% carbon dioxide. Human A549 lung carcinoma cells, Human HT-1080 fibrosarcoma cells, BSC-1 African green monkey kidney epithelial cells (all from American Tissue Culture Collection) were cultured in Dulbecco's modified eagle medium (DMEM) supplemented with 10% fetal bovine serum, 100 units/mL penicillin G sodium, 100 μg/mL streptomycin sulfate, and 2 mM L-glutamine (DMEM+). Human TAg Jurkat cells and mouse ROSA26 embryonic stem cells (gift of E. Roberston, Harvard University) were cultured as described (12). Mouse NIH-3T3 wild-type (Neo), HDAC6, HDAC6 double mutant, and HDAC1 overexpressing cells (gift from C. Hubbert, Duke University) were cultured as described (C. Hubbert et al., Nature 417, 455 (2002)1). Hippocampal neurons were dissociated from 1-day old rats and grown in culture using methods as described (E. N. Star, D. J. Kwiatkowski and V. N. Murthy, Nat. Neurosci. 5, 239 (2002)). All animal experiments were approved by Harvard University's standing committee on the use of animals in research and training.
Detection of acetylated α-tubulin and acetylated histones by immunofluorescence was performed as described in Example 6 above. […] For co-localization experiments, biotubacin (50 μM) treated A549 cells were fixed in 3.7% formaldehyde in TBS and processed as for detecting acetylated α-tubulin (See Example 6 above) with biotubacin detected using streptavidin-TR (1:500). HDAC6 was detected using a rabbit polyclonal antibody (1:250-1:750; C.M.G., unpublished data) under the conditions used to detect acetylated α-tubulin (See Example 6 above). Filamentous actin in HT-1080 cells was detected using TR-conjugated phalloidin (1 μg/mL), and depolymerized actin using FITC-conjugated deoxyribonuclease (10 μg/mL), following fixation in 3.7% formaldehyde in TBS. p58 (1:100) in NIH-3T3 cells was detected after fixation in 3.7% formaldehyde in TBS. […]

Entries after “also recorded” stand apart in the source; their conditions may differ.

In the case of `O=C(CCCCCCC(=O)Nc1ccc([C@@H]2OC(c3ccc(CO)cc3)C[C@H](CSc3nc(-c4ccccc4)c(-c4ccccc4)o3)O2)cc1)NO` (stereo partly drawn) [tubacin], for the setting “7-day old cultures: greater than 5 μM (10 μM, 48 h), 10-day old cultures: 1-2 μM, 96 h”, the “viability and morphology of neurons and astrocytes” value is “decreased the viability and staining with synaptotagmin; also recorded: had no affect on the viability of 10-day old neurons and astrocytes; also recorded: caused morphological changes and cell death; also recorded: did not cause a significant decrease in the number of 10-day old rat hippocampal neurons or astrocytes”. Also, the “α-tubulin acetylation in neurons and astrocytes” value (tubacin 1 μM 96 h or 10 μM 48 h, niltubacin 5 μM) is reported as “increased the acetylation of α-tubulin; also recorded: increased α-tubulin acetylation in both cell types”. Further, under “tubacin at least 1 μM for four days or 10 μM 48 h, niltubacin 5 μM”, the “synaptotagmin staining / synapses” value is “decreased the viability and staining with synaptotagmin; also recorded: had fewer synapses when compared to control cells”.

Source of the values: patent US8178579B2, “Dioxanes and uses thereof” (President and Fellows of Harvard College, priority 2001, dated 2012).
